Results: PubChem BioAssay AID184 (DTP/NCI, 2004)
Several values for one entry are separate records, joined by “and”; a condition that tells them apart may be missing. Identical values can stand only once. Inconclusive results and toxic doses are left out.

System: BALB/cJ mice, ADJ-PC-6 ip tumor, median survival T/C
Experiment: NCI In Vivo Anticancer Drug Screen. Data for tumor model ADJ-PC-6 (intraperitoneal) in BALB/cJ mice
Conditions: endpoint: median survival time, higher = longer survival
Experimental: The antitumor activity of compounds was measured in mice bearing transplantable tumors. Survival or tumor size were measured and the results are expressed as the measurement made in the treated group (T) divided by the measurement made in the vehicle treated control group (C). The tumor model used in this assay is ADJ-PC-6 (intraperitoneal) in BALB/cJ mice

[1] = dose: 0.5 mg/kg/injection, schedule: Q04DX003 (ip), vehicle: saline
[2] = dose: 1.0 mg/kg/injection, schedule: Q04DX003 (ip), vehicle: saline
[3] = dose: 2.0 mg/kg/injection, schedule: Q04DX003 (ip), vehicle: saline
[4] = dose: 4.0 mg/kg/injection, schedule: Q04DX003 (ip), vehicle: saline
[5] = dose: 0.38 mg/kg/injection, schedule: Q04DX003 (ip), vehicle: saline
[6] = dose: 1.5 mg/kg/injection, schedule: Q04DX003 (ip), vehicle: saline
[7] = dose: 3.0 mg/kg/injection, schedule: Q04DX003 (ip), vehicle: saline

With `O=C(O)C1(C(=O)O)CCC1.[NH2-].[NH2-].[Pt+2]` the T/C (dose: 10.8 mg/kg/injection, schedule: Q01DX009 (ip), vehicle: water) was 159 % of control, the T/C (dose: 11.7 mg/kg/injection, schedule: Q04DX003 (ip), vehicle: water) was 106 % of control and the T/C (dose: 12.5 mg/kg/injection, schedule: Q04DX003 (ip), vehicle: saline) was 108 % of control. For the same compound, the T/C (dose: 18.0 mg/kg/injection, schedule: Q01DX009 (ip), vehicle: water) was 175 % of control, the T/C (dose: 19.4 mg/kg/injection, schedule: Q04DX003 (ip), vehicle: water) was 106 % of control and the T/C (dose: 25.0 mg/kg/injection, schedule: Q04DX003 (ip), vehicle: saline) was 114 % of control. The T/C (dose: 32.4 mg/kg/injection, schedule: Q04DX003 (ip), vehicle: water) was 164 % of control, the T/C (dose: 50.0 mg/kg/injection, schedule: Q04DX003 (ip), vehicle: saline) was 178 % of control and the T/C (dose: 54.0 mg/kg/injection, schedule: Q04DX003 (ip), vehicle: water) was 170 % of control and 215 % of control. For the same compound, the T/C (dose: 90.0 mg/kg/injection, schedule: Q04DX003 (ip), vehicle: water) was 103 % of control and the T/C (dose: 100.0 mg/kg/injection, schedule: Q04DX003 (ip), vehicle: saline) was 217 % of control.
In the case of `COC(=O)C[C@](O)(CCCC(C)(C)O)C(=O)O[C@@H]1C(OC)=C[C@]23CCCN2CCc2cc4c(cc2[C@H]13)OCO4`, the T/C (dose: 0.25 mg/kg/injection, schedule: Q04DX003 (ip), vehicle: saline) was 104 % of control, the T/C [1] was 93 % of control and the T/C [2] was 88 % of control. The T/C [3] was 104 % of control and the T/C [4] was 102 % of control.
With `C(=N/NC1=NCCN1)/c1c2ccccc2c(/C=N\NC2=NCCN2)c2ccccc12` the T/C (dose: 3.75 mg/kg/injection, schedule: Q04DX003 (ip), vehicle: saline) was 253 % of control, the T/C (dose: 3.75 mg/kg/injection, schedule: Q04DX003 (ip), vehicle: water) was 235 % of control and the T/C (dose: 7.5 mg/kg/injection, schedule: Q04DX003 (ip), vehicle: saline) was 204 % of control. The T/C (dose: 7.5 mg/kg/injection, schedule: Q04DX003 (ip), vehicle: water) was 235 % of control, the T/C (dose: 15.0 mg/kg/injection, schedule: Q04DX003 (ip), vehicle: saline) was 253 % of control and the T/C (dose: 15.0 mg/kg/injection, schedule: Q04DX003 (ip), vehicle: water) was 235 % of control. For the same compound, the T/C (dose: 30.0 mg/kg/injection, schedule: Q04DX003 (ip), vehicle: saline) was 225 % of control, the T/C (dose: 30.0 mg/kg/injection, schedule: Q04DX003 (ip), vehicle: water) was 235 % of control and the T/C (dose: 60.0 mg/kg/injection, schedule: Q04DX003 (ip), vehicle: saline) was 267 % of control.
With `O=C1c2c(O)ccc(O)c2C(=O)c2c(NCCNCCO)ccc(NCCNCCO)c21` the T/C [5] was 155 % of control and 267 % of control, the T/C (dose: 0.38 mg/kg/injection, schedule: Q04DX003 (iv), vehicle: saline) was 89 % of control and the T/C [1] was 188 % of control. The T/C (dose: 0.5 mg/kg/injection, schedule: Q04DX003 (ip), vehicle: water) was 186 % of control, the T/C (dose: 0.75 mg/kg/injection, schedule: Q04DX003 (ip), vehicle: saline) was 179 % of control and 267 % of control and the T/C [2] was 207 % of control. For the same compound, the T/C (dose: 1.0 mg/kg/injection, schedule: Q04DX003 (ip), vehicle: water) was 195 % of control, the T/C [6] was 194 % of control and 267 % of control and the T/C (dose: 1.5 mg/kg/injection, schedule: Q04DX003 (iv), vehicle: saline) was 153 % of control and 217 % of control. The T/C [3] was 342 % of control, the T/C (dose: 2.0 mg/kg/injection, schedule: Q04DX003 (ip), vehicle: water) was 235 % of control and the T/C [7] was 194 % of control and 267 % of control. The T/C (dose: 3.0 mg/kg/injection, schedule: Q04DX003 (iv), vehicle: saline) was 155 % of control and 232 % of control, the T/C [4] was 160 % of control and the T/C (dose: 6.0 mg/kg/injection, schedule: Q04DX003 (iv), vehicle: saline) was 179 % of control and 267 % of control.
For `S=c1nc[nH]c2nc[nH]c12`, the T/C (dose: 10.0 mg/kg/injection, schedule: Q04DX003 (ip), vehicle: alkali diluted with saline) was 335 % of control, the T/C (dose: 20.0 mg/kg/injection, schedule: Q04DX003 (ip), vehicle: alkali diluted with saline) was 335 % of control and the T/C (dose: 25.0 mg/kg/injection, schedule: Q04DX003 (ip), vehicle: alkali diluted with saline) was 471 % of control. The T/C (dose: 40.0 mg/kg/injection, schedule: Q04DX003 (ip), vehicle: alkali diluted with saline) was 335 % of control, the T/C (dose: 50.0 mg/kg/injection, schedule: Q04DX003 (ip), vehicle: alkali diluted with saline) was 471 % of control and the T/C (dose: 80.0 mg/kg/injection, schedule: Q04DX003 (ip), vehicle: alkali diluted with saline) was 335 % of control. For the same compound, the T/C (dose: 100.0 mg/kg/injection, schedule: Q04DX003 (ip), vehicle: alkali diluted with saline) was 178 % of control and 471 % of control, the T/C (dose: 100.0 mg/kg/injection, schedule: Q04DX003 (ip), vehicle: alkali diluted with water) was 275 % of control and 283 % of control and the T/C (dose: 160.0 mg/kg/injection, schedule: Q04DX003 (ip), vehicle: alkali diluted with saline) was 335 % of control. The T/C (dose: 200.0 mg/kg/injection, schedule: Q04DX003 (ip), vehicle: alkali diluted with saline) was 93 % of control and the T/C (dose: 200.0 mg/kg/injection, schedule: Q04DX003 (ip), vehicle: alkali diluted with water) was 275 % of control and 369 % of control.
For `CCN(CC)CCNc1ccc(C)c2sc3ccccc3c(=O)c12`, the T/C (dose: 12.5 mg/kg/injection, schedule: Q04DX003 (ip), vehicle: water) was 103 % of control, the T/C (dose: 50.0 mg/kg/injection, schedule: Q04DX003 (ip), vehicle: water) was 113 % of control and the T/C (dose: 100.0 mg/kg/injection, schedule: Q04DX003 (ip), vehicle: water) was 91 % of control.
`COc1cccc2c1C(=O)c1c(O)c3c(c(O)c1C2=O)C[C@@](O)(C(C)=O)C[C@@H]3OC1CC(N)C(O)C(C)O1` (stereo partly drawn) was tested, and the T/C [5] was 101 % of control, the T/C [6] was 174 % of control and the T/C [3] was 177 % of control. For the same compound, the T/C [7] was 117 % of control.
With `COc1cc(NCc2ccc3nc(N)nc(N)c3c2C)cc(OC)c1OC` the T/C (dose: 3.75 mg/kg/injection, schedule: Q01DX009 (ip), vehicle: Klucel (hydroxypropylcellulose) (HPC)) was 98 % of control, the T/C (dose: 7.5 mg/kg/injection, schedule: Q01DX009 (ip), vehicle: Klucel (hydroxypropylcellulose) (HPC)) was 110 % of control and the T/C (dose: 15.0 mg/kg/injection, schedule: Q01DX009 (ip), vehicle: Klucel (hydroxypropylcellulose) (HPC)) was 115 % of control.
With `CC1=C(C)C(=O)O[C@@H]([C@](C)(O)[C@]2(O)CC[C@@]3(O)[C@@H]4C[C@H]5O[C@]56[C@@H](O)C=CC(=O)[C@]6(C)[C@H]4CC[C@]23C)C1` the T/C (dose: 1.0 mg/kg/injection, schedule: Q01DX009 (ip), vehicle: saline + alcohol) was 111 % of control, the T/C (dose: 1.0 mg/kg/injection, schedule: Q01DX009 (ip), vehicle: saline with Tween-80) was 104 % of control and the T/C (dose: 2.0 mg/kg/injection, schedule: Q01DX009 (ip), vehicle: saline + alcohol) was 96 % of control. For the same compound, the T/C (dose: 2.0 mg/kg/injection, schedule: Q01DX009 (ip), vehicle: saline with Tween-80) was 107 % of control, the T/C (dose: 4.0 mg/kg/injection, schedule: Q01DX009 (ip), vehicle: saline + alcohol) was 98 % of control and the T/C (dose: 4.0 mg/kg/injection, schedule: Q01DX009 (ip), vehicle: saline with Tween-80) was 97 % of control. The T/C (dose: 8.0 mg/kg/injection, schedule: Q01DX009 (ip), vehicle: saline + alcohol) was 114 % of control and the T/C (dose: 8.0 mg/kg/injection, schedule: Q01DX009 (ip), vehicle: saline with Tween-80) was 106 % of control.
For `COc1c(O)c2c(c3cc(C(=O)N4CCc5c4c(O)c(OC)c4[nH]c(C(=O)N6CC7CC78C6=CC(=O)c6[nH]cc(C)c68)cc54)[nH]c13)CCN2C(N)=O` (stereo not drawn), the T/C (dose: 25.0 micrograms/kg/injection, schedule: Q04DX003 (ip), vehicle: DMSO) was 95 % of control, the T/C (dose: 50.0 micrograms/kg/injection, schedule: Q04DX003 (ip), vehicle: DMSO) was 96 % of control and the T/C (dose: 100.0 micrograms/kg/injection, schedule: Q04DX003 (ip), vehicle: DMSO) was 103 % of control. The T/C (dose: 200.0 micrograms/kg/injection, schedule: Q04DX003 (ip), vehicle: DMSO) was 100 % of control.
